Experimental data as given in patent US8742106B2 (Novartis AG, priority 2009, dated 2014).
pKd, pKi: −log10 of the molar value.

Key:
human orexin 1 receptors [1] = target: T1, human orexin 1 receptors (Homo sapiens (Human), UniProt O43613); test: Calcium Accumulation in Cells (FLIPR), antagonism of orexin A; assay type: cell-based; details: antagonism of orexin A, Cheng-Prusoff corrected; read-out: FLIPR hOx1R Ki
human orexin 2 receptors [2] = target: T2, human orexin 2 receptors (Homo sapiens (Human), UniProt O43614); test: as above; assay type: cell-based; details: for pKi: antagonism of orexin A, Cheng-Prusoff corrected, read-out: FLIPR hOx2R Ki
T2 sequence (O43614 whole entry): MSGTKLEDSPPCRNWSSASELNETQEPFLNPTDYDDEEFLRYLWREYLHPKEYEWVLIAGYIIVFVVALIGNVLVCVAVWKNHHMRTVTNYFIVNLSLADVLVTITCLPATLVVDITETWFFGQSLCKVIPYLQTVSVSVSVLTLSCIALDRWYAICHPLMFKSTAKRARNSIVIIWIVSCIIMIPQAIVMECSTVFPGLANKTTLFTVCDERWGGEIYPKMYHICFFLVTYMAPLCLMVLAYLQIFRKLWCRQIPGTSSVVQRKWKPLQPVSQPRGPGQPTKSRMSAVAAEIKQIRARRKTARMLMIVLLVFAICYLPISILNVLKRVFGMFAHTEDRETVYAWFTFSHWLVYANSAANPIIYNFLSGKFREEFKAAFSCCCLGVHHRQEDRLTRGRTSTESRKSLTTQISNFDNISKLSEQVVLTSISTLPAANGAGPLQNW
Procedure, shortened: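 Cells expressing human orexin 2 receptor, loaded with Fluo4-AM (2 μM) plus probenecid (0.1 mM) for 1 h, then washed. Antagonism read as inhibition of the orexin A calcium fluorescence signal (FLIPR).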

human orexin 1 receptors [3] = target: T1, human orexin 1 receptors; test: Radioligand Binding Assay II ([3H]-SB649868 competition, cell membranes); details: read-out: binding II hOx1R Kd
Procedure: (§1) Radioligand Binding Assay II
(§2) For crude cell membrane preparations, cells (CHO, Chinese hamster ovary or HEK, human embryonic kidney) expressing human orexin 1 or human orexin 2 receptors, were washed with HEPES (10 mM, pH 7.5), scraped off the culture plates with the same buffer, and centrifuged at 4° C. for 5 min at 2500×g. The cell pellet was either stored at −80° C. or used directly. Before the experiments, cell membranes were re-suspended in binding assay buffer (10 mM HEPES, 0.5% (w/v) bovine serum albumin, pH 7.5) by homogenisation with a Polytron homogeniser at 50 Hz for 20 s. Cell membranes were also used as made available by commercial providers.
(§3) Bound radioactivity was measured, and data were analysed with the program XLFIT or Graphpad Prism. Protein concentration was determined according to the Bradford/BioRad Protein Assay Kit.
(§4) In competition experiments, cell homogenates (150 μl) were incubated in assay buffer (10 mM HEPES, pH 7.5, 0.5% (w/v) bovine serum albumin, 5 mM MgCl2, 1 mM CaCl2, and tween 0.05%) for 1 h at room temperature with about 1 nM of the radioligand [^3H]-SB649868, 66 Ci/mmole, 50 μl), and with various concentrations of compounds of the invention (50 μl) in triplicates; non-specific binding was determined in the presence of almorexant (10 μM). Reactions were terminated by vacuum filtration, 3 washes of ice cold wash buffer (Tris-HCl pH 7.4/10 mM, with NaCl 154 mM). Competition data is expressed in Table 2 as Kd [μM].

human orexin 2 receptors [4] = target: T2, human orexin 2 receptors; test: as above; details: read-out: binding II hOx2R Kd
Procedure: as §1, §2, §3
as §4, with “mM).” for “mM). Competition data is expressed in Table 2 as Kd [μM].”

T1 sequence (O43613 whole entry): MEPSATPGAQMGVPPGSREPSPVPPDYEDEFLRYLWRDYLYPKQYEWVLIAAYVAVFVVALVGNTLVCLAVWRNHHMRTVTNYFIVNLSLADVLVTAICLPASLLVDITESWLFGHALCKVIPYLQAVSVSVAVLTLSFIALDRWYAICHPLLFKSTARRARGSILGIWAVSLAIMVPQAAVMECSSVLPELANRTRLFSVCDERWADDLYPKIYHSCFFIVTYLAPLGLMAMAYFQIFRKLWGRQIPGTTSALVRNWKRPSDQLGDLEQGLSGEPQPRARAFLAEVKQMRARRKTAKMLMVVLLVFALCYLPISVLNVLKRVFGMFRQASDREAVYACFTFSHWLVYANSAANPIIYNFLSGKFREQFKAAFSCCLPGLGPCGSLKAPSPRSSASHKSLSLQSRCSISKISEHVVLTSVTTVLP

Row | SMILES | pKi (human orexin 1 receptors [1]) | pKi (human orexin 2 receptors [2]) | pKd (human orexin 1 receptors [3]) | pKd (human orexin 2 receptors [4]) | inhibition at 10 µM (human orexin 2 receptors [2]; measured at a concentration of 10 μM of compound, read-out: FLIPR hOx2R % inhibition value) [%]
1 | COc1ccc2c(c1)CC[C@@H]2NC(=O)C(C)Oc1cc(C)c2c(C3CC3)nn(C)c2n1 (single isomer, unassigned) [Example 6.71, (R or S)-2-(3-cyclopropyl-1,4-dimethyl-1H-pyrazolo[3,4-b]pyridin-6-yloxy)-N-((S)-5-methoxy-2,3-dihydro-1H-inden-1-yl)propanamide] | 6.46 | 7.26 | 6.23 | 7.02 | 
2 | Cc1ccc([C@H](C)NC(=O)COc2cc(C)c3c(-c4ncccc4F)nn(C)c3n2)cc1 [Example 4.1, (S)-2-((3-(3-fluoropyridin-2-yl)-1,4-dimethyl-1H-pyrazolo[3,4-b]pyridin-6-yl)oxy)-N-(1-(p-tolyl)ethyl)acetamide] | 6.88 | 7.46 | 7.57 | 7.66 | 
3 | Cc1ccc([C@H](C)NC(=O)COc2cc(C)c3c(-c4ncco4)nn(C)c3n2)cc1 [Example 4.2, (S)-2-(1,4-dimethyl-3-(oxazol-2-yl)-1H-pyrazolo[3,4-b]pyridin-6-yloxy)-N-(1-p-tolylethyl)acetamide] | 7.17 | 7.49 | 8.00 | 7.77 | 
4 | Cc1ccc([C@H](C)NC(=O)COc2cc(C)c3c(-c4cnn(C)c4)nn(C)c3n2)cc1 [Example 4.6, (S)-2-(1,4-dimethyl-3-(1-methyl-1H-pyrazol-4-yl)-1H-pyrazolo[3,4-b]pyridin-6-yloxy)-N-(1-p-tolylethyl)acetamide] | 6.61 | 7.05 | 7.12 | 7.09 | 
5 | Cc1ccc([C@H](C)NC(=O)COc2cc(C)c3c(-c4ncccn4)nn(C)c3n2)cc1 [Example 4.7, (S)-2-(1,4-dimethyl-3-(pyrimidin-2-yl)-1H-pyrazolo[3,4-b]pyridin-6-yloxy)-N-(1-p-tolylethyl)acetamide] | 8.40 | 8.05 | 7.96 | 7.89 | 
6 | Cc1ccc([C@H](C)NC(=O)COc2cc(C)c3c(-c4cnccn4)nn(C)c3n2)cc1 [Example 4.8, (S)-2-(1,4-dimethyl-3-(pyrazin-2-yl)-1H-pyrazolo[3,4-b]pyridin-6-yloxy)-N-(1-p-tolylethyl)acetamide] | 7.28 | 7.82 | 7.70 | 7.66 | 
7 | Cc1ccc([C@H](C)NC(=O)COc2cc(C)c3c(-c4ccc(C)cn4)nn(C)c3n2)cc1 [Example 4.9, (S)-2-(1,4-dimethyl-3-(5-methylpyridin-2-yl)-1H-pyrazolo[3,4-b]pyridin-6-yloxy)-N-(1-p-tolylethyl)acetamide] | 7.92 | 8.30 | 7.85 | 7.72 | 
8 | Cc1ccc([C@H](C)NC(=O)COc2cc(C)c3c(-c4cscn4)nn(C)c3n2)cc1 [Example 4.10, (S)-2-(1,4-dimethyl-3-(thiazol-4-yl)-1H-pyrazolo[3,4-b]pyridin-6-yloxy)-N-(1-p-tolylethyl)acetamide] | 8.30 | 8.30 | 8.30 | 8.22 | 
9 | Cc1ccc([C@H](C)NC(=O)COc2cc(C)c3c(-c4nc(C)cs4)nn(C)c3n2)cc1 [Example 5.1, (S)-2-((1,4-dimethyl-3-(4-methylthiazol-2-yl)-1H-pyrazolo[3,4-b]pyridin-6-yl)oxy)-N-(1-(p-tolyl)ethyl)acetamide] | 8.00 | 8.00 | 8.40 | 8.52 | 
10 | Cc1ccc([C@H](C)NC(=O)COc2cc(C)c3c(-c4nccs4)nn(C)c3n2)cc1 [Example 5.2, (S)-2-(1,4-dimethyl-3-(thiazol-2-yl)-1H-pyrazolo[3,4-b]pyridin-6-yloxy)-N-(1-p-tolylethyl)acetamide] | 8.22 | 9.00 | 8.52 | 8.52 | 
11 | COc1ccnc(-c2nn(C)c3nc(OCC(=O)N[C@@H](C)c4ccc(C)cc4)cc(C)c23)n1 [Example 5.3, (S)-2-(3-(4-methoxypyrimidin-2-yl)-1,4-dimethyl-1H-pyrazolo[3,4-b]pyridin-6-yloxy)-N-(1-p-tolylethyl)acetamide] | 8.00 | 7.41 | 8.15 | 7.72 | 
12 | Cc1ccc([C@H](C)NC(=O)COc2cc(C)c3c(-c4cncs4)nn(C)c3n2)cc1 [Example 5.4, (S)-2-(1,4-dimethyl-3-(thiazol-5-yl)-1H-pyrazolo[3,4-b]pyridin-6-yloxy)-N-(1-p-tolylethyl)acetamide] | 6.75 | 7.96 | 7.34 | 7.59 | 
13 | COc1nc(-c2nn(C)c3nc(OCC(=O)N[C@@H](C)c4ccc(C)cc4)cc(C)c23)cs1 [Example 5.5, (S)-2-(3-(2-methoxythiazol-4-yl)-1,4-dimethyl-1H-pyrazolo[3,4-b]pyridin-6-yloxy)-N-(1-p-tolylethyl)acetamide] | 7.68 | 7.55 | 7.82 | 7.43 | 
14 | Cc1ccc([C@H](C)NC(=O)COc2cc(C)c3c(-c4ncc(C)s4)nn(C)c3n2)cc1 [Example 5.6, (S)-2-(1,4-dimethyl-3-(5-methylthiazol-2-yl)-1H-pyrazolo[3,4-b]pyridin-6-yloxy)-N-(1-p-tolylethyl)acetamide] | 8.22 | 8.30 | 8.40 | 8.52 | 
15 | Cc1ccc([C@H](C)NC(=O)COc2cc(C)c3c(-c4cccc(C)n4)nn(C)c3n2)cc1 [Example 5.7, (S)-2-(1,4-dimethyl-3-(6-methylpyridin-2-yl)-1H-pyrazolo[3,4-b]pyridin-6-yloxy)-N-(1-p-tolylethyl)acetamide] | 7.34 | 7.25 | 8.00 | 7.68 | 
16 | Cc1ccc2c(n1)CC[C@@H]2NC(=O)COc1cc(C(F)F)c2c(C3CC3)nn(C)c2n1 [Example 6.2, (S)-2-(3-cyclopropyl-4-(difluoromethyl)-1-methyl-1H-pyrazolo[3,4-b]pyridin-6-yloxy)-N-(2-methyl-6,7-dihydro-5H-cyclopenta[b]pyridin-5-yl)acetamide] | 6.55 | 7.30 | 7.21 | 7.12 | 
17 | COc1ccc2c(c1)CCC2NC(=O)COc1cc(C)c2c(C3CC3)nn(C)c2n1 (centres unmarked) [Example 6.3, 2-(3-cyclopropyl-1,4-dimethyl-1H-pyrazolo[3,4-b]pyridin-6-yloxy)-N-(5-methoxy-2,3-dihydro-1H-inden-1-yl)acetamide] | 6.72 |  | 7.00 |  | 
18 | COc1ccc2c(c1)CC[C@@H]2NC(=O)COc1cc(C)c2c(C3CC3)nn(C)c2n1 [Example 6.5, (S)-2-(3-cyclopropyl-1,4-dimethyl-1H-pyrazolo[3,4-b]pyridin-6-yloxy)-N-(5-methoxy-2,3-dihydro-1H-inden-1-yl)acetamide] | 6.82 |  | 7.17 |  | 
19 | COc1ccc([C@H](C)NC(=O)COc2cc(C)c3c(-c4cc(OC)cc(OC)c4)nn(C)c3n2)cc1 [Example 6.36, (S)-2-(3-(3,5-dimethoxyphenyl)-1,4-dimethyl-1H-pyrazolo[3,4-b]pyridin-6-yloxy)-N-(1-(4-methoxyphenyl)ethyl)acetamide] |  | 6.49 | 7.72 | 6.30 | 
20 | COc1cccc2c1CCCC2NC(=O)COc1cc(C)c2c(C3CC3)nn(C)c2n1 (centres unmarked) [Example 7.32, 2-(3-cyclopropyl-1,4-dimethyl-1H-pyrazolo[3,4-b]pyridin-6-yloxy)-N-(5-methoxy-1,2,3,4-tetrahydronaphthalen-1-yl)acetamide] | 6.86 | 6.52 |  |  | 
21 | CCOc1ccc(CNC(=O)COc2cc(C)c3c(C4CC4)nn(C)c3n2)cc1 [Example 7.33, 2-(3-cyclopropyl-1,4-dimethyl-1H-pyrazolo[3,4-b]pyridin-6-yloxy)-N-(4-ethoxybenzyl)acetamide] | 5.50 |  |  |  | 24
22 | Cc1cc(OCC(=O)NC(C)c2cnc3c(ccn3C)c2)nc2c1c(C1CC1)nn2C (centres unmarked) [Example 8.1, 2-(3-cyclopropyl-1,4-dimethyl-1H-pyrazolo[3,4-b]pyridin-6-yloxy)-N-(1-(1-methyl-1H-pyrrolo[2,3-b]pyridin-5-yl)ethyl)acetamide] | 7.04 | 6.78 |  |  | 
